Where “and” joins values, the source holds several entries; their conditions need not be identical. Equal entries are not always repeated. Where two headings read alike, the source gives them in different places. Ends that are not written are not given here.
Tests used:
[1] = biological target: T1, tartrate-resistant acid phosphatase (TRAP) (Homo sapiens, UniProt P13686); test: Surface plasmon resonance (SPR) affinity of peptides and peptide-functionalized polymers for TRAP, binding-curve fit
T1 sequence (P13686 22-325): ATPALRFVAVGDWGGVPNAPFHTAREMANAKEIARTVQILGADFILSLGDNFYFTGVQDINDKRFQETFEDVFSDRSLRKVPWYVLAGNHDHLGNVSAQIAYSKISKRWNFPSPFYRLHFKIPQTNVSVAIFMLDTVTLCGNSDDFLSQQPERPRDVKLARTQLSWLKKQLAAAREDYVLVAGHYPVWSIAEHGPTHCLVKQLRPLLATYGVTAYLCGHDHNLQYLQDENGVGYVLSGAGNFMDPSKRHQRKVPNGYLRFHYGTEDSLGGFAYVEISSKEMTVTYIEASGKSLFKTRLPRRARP
Description: (§1) Surface plasmon resonance (SPR) is used to assess the affinity of peptides for TRAP. Series S Sensor CM5 Chips are functionalized with TRAP via 1-ethyl-3-(3-dimethylaminopropyl) carbodiimide (EDC)/N-hydroxysuccinimide (NHS) chemistry. Briefly, the chips, which have a carboxymethylated dextran functionality, are activated through the introduction of NHS and EDC. After activation, TRAP protein, at 30 μg/mL in sodium acetate (pH=5), is introduced to the surface. Ethanolamine-hydrochloric acid is used to quench unreacted carboxysuccinimide groups. Peptides are dissolved in running buffer of PBS with 0.005% Tween20. Peptides are analyzed in duplicate at different concentrations. Surface regeneration is achieved using a combination of 1 and 2 M NaCl and 1-50 mM NaOH solutions as necessary.
In SPR, the binding of any molecules to the surface of the sensor chips results in a change in the angle of incident light reflection, allowing highly-sensitive detection of miniscule amounts of ligand binding to the surface. Target affinity can be determined by introducing increasing concentrations of the ligand to the surface. Higher concentrations of samples elicited larger responses. The binding response was measured and plotted against concentration (FIG. 4), allowing for a fitting of the data by a binding curve. From this fitting, values such as KD can be determined. Through this technique, the affinity of TBP and SCP was analyzed. […] While not wishing to be bound by any particular theory, a possible, but improbable, cause for difference in affinity is the inclusion of the glycine residue on the carboxylic end of the synthesized peptide used herein. Despite this addition, the order of the original sequence is preserved, and glycine is a small, uncharged and nonpolar amino acid. […] In prior studies using phage display, five copies of the peptide are present and exposed (Sheu et al., 2002, Journal of Bone and Mineral Research, 17(5):915-922). Therefore, part of the higher affinity seen in the phage display experiments could be due to the multivalent nature of the peptide on the phage.
Quantitative analyses of peptide and polymer affinities were performed using SPR. […] The binding of any molecules to the surface of the sensor chips results in a change in the angle of incident light reflection, allowing highly-sensitive detection of miniscule amounts of ligand binding to the surface. Target affinity can be determined by introduction of increasing concentrations of the molecule to the surface (FIG. 38A and FIG. 38B). Typically higher concentrations of samples elicited larger responses, with a larger response from polymers at lower concentrations in comparison to the TBP alone. […] Furthermore, polymer samples required the application of regeneration buffers, ranging from a mild buffer of 500 mM NaCl to a harsher buffer of 5 mM NaOH, to return the signal to previous levels. The binding response is measured and plotted against concentration, allowing for a fitting of the data by a binding curve. From this fitting, values such as the dissociation constant (KD) value can be determined. Through this technique, the affinity of peptides and peptide-functionalized polymers were analyzed. […] However, inclusion of peptide functionalities results in substantial increases in TRAP affinities (KD˜7.1-21 μM). […] While not wishing to be bound by any particular theory, a possible, but improbable, cause for difference in affinity is the inclusion of the glycine residue on the carboxylic end of the synthesized peptide used herein. Despite this addition the order of the original sequence is preserved and glycine is a small, uncharged and nonpolar amino acid. […] In prior studies using phage display, five copies of the peptide are present and exposed (Sheu et al., 2002, Journal of Bone and Mineral Research, 17(5): 915-922). Therefore part of the higher affinity seen in the phage display experiments could be due to the multivalent nature of the peptide on the phage. […]

[2] = Bone resorption pit binding of fluorescently labeled peptides, confocal imaging; set-up: species or system human; details: fluorescently labeled peptide, overnight incubation
Description: Equal concentrations of fluorescently labeled TBP and SCP are prepared in 1× phosphate-buffered saline (PBS). Bone wafers are cut from cortical bone obtained from the femur of a human donor cadaver and incubated in peptide solutions overnight, washed twice with 1×PBS, and then visualized via confocal imaging. Stacked sections are compressed into 2D images to allow for qualitative analysis as in FIG. 3A through FIG. 3D. […] Qualitatively, no binding of SCP is detected (FIG. 3D).

TRAP protein = biological target: T2, TRAP protein (Homo sapiens, UniProt P13686); test: SPR affinity of peptide-functionalized polymers for TRAP, initial rate analysis of sensorgrams; type: binding; details: for SPR binding response to TRAP: sensorgrams
T2 sequence (P13686 22-325): T1 sequence (P13686 22-325)
Description: as §1, with “peptide-functionalized polymers” for “peptides”, “Polymers” for “Peptides”, “1-10” for “a combination of 1 and 2 M NaCl and 1-50”, “necessary. […] Sensorgram data (FIG. 22) are exported from the SPR evaluation software after smoothing data of injection events and analyzed. Response units (RU) are converted into concentrations for rate analysis using the equation: S[M]=RU/60000 MW” for “necessary.”
Where S is the concentration of polymer bound to the TRAP-functionalized surface and MW is the molecular weight of the polymer. The binding rates of polymers to TRAP are determined in the initial linear portion of association, within two seconds of the start of injection. The reciprocals of binding rates are plotted against the reciprocals of polymer concentrations to obtain a linear relationship, generalized in the equation: Vi^−1=KDSi^−1Vm^−1Vm^−1
Where Vi is the binding rate for each i concentration of polymer and Vm is the maximum binding rate of polymer to TRAP. This relationship identifies the KD for each polymer (Table 4). Only TBP-functionalized polymers show affinity for TRAP (FIG. 22), as control (SCP-functionalized and PEG) polymer show no positive binding response (FIG. 23A through FIG. 23C).

β-catenin in MSCs = test: β-catenin agonism and cellular uptake of NPs in MSCs; type: cell-based; details: over 5 days of treatment
Description: To investigate the intracellular accessibility of this NPs, polymers were labeled with fluorescein isothiocyanate (FITC) fluorophore and incubated with MSCs (FIG. 44B). […] To validate β-catenin agonism of NP delivered GSK3β inhibitor XXVII, cells were treated with free GSK3β inhibitor XXVII and NP delivered GSK3β inhibitor XXVII.

[3] = system: β-catenin and ALP in osteoblasts; test: BIO treatment of osteoblasts, β-catenin levels and ALP production; type: cell-based; details: 24 hours treatment
Description: Data represents mean±standard deviation for 3 trials. *p<0.05 versus control, #p<0.05 versus 2 μM BIO (n=5).
Several BIO-releasing polymers that are the correct molecular weight to enhance circulation time and avoid renal clearance have been successfully synthesized. […] Finally, released BIO biological activity is confirmed versus the free, unconjugated molecule and rescue of β-catenin signaling in osteoblasts is verified.

[4] = Vougogiannopoulou et al., 2008; cited from earlier work
[5] = system: Mouse osteoblasts (MC3T3E1); test: Cytocompatibility of peptide-functionalized polymers, Picogreen DNA assay; type: cell-based; details: 0.1 mM and 10 mM, 7 days, normalized to media alone
Description: Mouse osteoblasts (MC3T3E1) were maintained in alpha minimum essential media (α-MEM, Gibco), containing 10% fetal bovine serum (FBS, Invitrogen) and 1% penicillin-streptomycin-fungizone at 37° C. and 5% CO2. Cells were utilized at passage 5. To assess the cytocompatibility of peptide-functionalized polymers, cells were seeded in a 48 well plates at 10,000 cells/well and allowed to adhere overnight. Cells were treated with media alone or with peptide or peptide-functionalized polymers (0.1 mM and 10 mM) for 7 days, with media exchanges every two days. These concentrations employed are far higher than expected to be necessary for future uses and allowed for isolation of the maximum tolerated doses in vitro. After seven days of exposure, cells were washed, lysed by sonication, and analyzed for DNA concentration using the Picogreen Assay (Invitrogen). Results were normalized to cells treated with media alone.

[6] = system: areas with cathepsin K and osteoclast activity at calvarial defect; test: Co-localization of polymers to actively remodeling bone, two-photon microscopy of cranial window defect; type: in vivo, mice; details: 5 mg kg^−1 intraperitoneal, imaged thirty minutes later
Description: A thinned-skull cranial window is produced in mice as previously described (Yang et al., 2010, Nat Protoc 5:201). Briefly, a 500-μm diameter defect is made in the skull of mice and covered with a glass coverslip. The night before imaging, mice are injected intraperitoneal with 100 μL reconstituted cathepsin K probe in 1×PBS, prepared according to the manufacturer's protocol. At times of 3 and 8 days post-procedure, 5 mg kg^−1 of fluorescently-labeled pTBP, pSCP, or PEG in saline is injected intraperitoneal and imaged thirty minutes later using two-photon microscopy (Olympus Fluoview). Cathepsin K, a cysteine protease, is secreted by osteoclasts; therefore, TRAP is expected to be present in areas with cathepsin K activity. […] Bone drilling defects have been used previously to investigate osteoclast activity, with osteoclast accumulation at the defect evident from positive TRAP staining (Tanaka et al., 2010, J Biomed Mater Res, 93A(2): 469-474). […] Other live imaging modalities and sections of sacrificed mice are used to track biodistribution to other organs. Since the amino acid sequence of human, mouse, and rat TRAP is 89-94% homologous (Lamp and Drexler, 2000, Leukemia Lymphoma, 39(5-6): 477-484), it is probable that TBP-functionalized polymer therapeutic affinity to TRAP in mice can be translated into humans.

[7] = Bone targeting of fluorescently labeled polymer therapeutics on osteoclast-resorbed bone wafers; type: binding, bovine
Description: Bovine cortical bone is cut into 5-mm square, 0.5-mm thick wafers using a low speed saw with a diamond wafering blade. Bone wafers are boiled in ddH2O for 15 minutes, placed in 96-well plates, sterilized in 70% ethanol for half an hour on each side, washed thrice in 1×PBS, and incubated in alpha minimum essential medium (α-MEM) for at least 1 hour at 37° C. before cell seeding.
Monocytes are freshly isolated from the spleens of mice, filtered twice with a 40 μm cell strainer, collected via centrifugation (5 minutes, 1000 rpm), and re-suspended in sterile filtered mouse red blood cell lysis buffer for 10 minutes at room temperature. After neutralizing lysis buffer with 1×PBS, monocytes are collected via centrifugation and washed in α-MEM containing 10% fetal bovine serum, 1% penicillin-streptomycin-fungizone, 1% GlutaMAX, and 1% non-essential amino acids before re-suspension in medium containing 100 ng mL^−1 M-CSF conditioned medium (Takeshita et al., 2000, J Bone Miner Res 15:1477). Monocytes are seeded in 96-well plates on the tissue culture surface or on prepared bovine cortical bone wafers at 2×10^5 cells well^−1 (1×10^6 cells mL^−1). After 3 days of incubation at 37° C. and 5% CO2, medium is supplemented with 1 ng mL^−1 receptor activator of nuclear factor κB ligand (RANKL) to induce osteoclast differentiation. […]

[8] = TRAP-functionalized CM5 chip, n = 2, Ave. ± StDev, read-out: KD

Molecule: H-TPLSYLKGLVTVG [TBP]
- Kd ([1]; binding-curve fit, read-out: KD for TRAP): ~200 µM and ~700 µM
- Kd ([1]; read-out: affinity for TRAP measured with SPR): 795 µM
- binding to bone resorption pits [2]: specific binding

Molecule: 10% SCP (VPVGTLSYLKLTG) [reference compound]
- SPR binding response to TRAP (TRAP protein): negative responses

Molecule: 20% TBP (TPLSYLKGLVTVG)
- Kd (TRAP protein; initial rate analysis of SPR sensorgrams): 70 µM

Molecule: CN1CCN(S(=O)(=O)c2ccc(-c3cnc(N)c(C(=O)Nc4cccnc4)n3)cc2)CC1 [GSK3β inhibitor XXVII, 3-amino-6-{4-[(4-methyl-1-piperazinyl)sulfonyl]phenyl}-N-(3-pyridinyl)-2-pyrazinecarboxamide]
- β-catenin agonism / activation (β-catenin in MSCs): potent agonist of β-catenin

Molecule: 20% SCP (VPVGTLSYLKLTG) [reference compound]
- SPR binding response to TRAP (TRAP protein): negative responses

Molecule: 10% TBP (TPLSYLKGLVTVG)
- SPR binding response to TRAP (TRAP protein): positive response

Molecule: O=C1Nc2cc(Br)ccc2/C1=C1/Nc2ccccc2/C1=N\O [BIO, 6-bromoindirubin-3′-oxime]
- ALP production ([3]; analyzed 7-days after treatment): increased
- β-catenin levels ([3]; just after treatment): increased
- water solubility [4]: poor water solubility

Molecule: 10% peptide-functionalized polymer (TPLSYLKGLVTVG)
- Kd [1, 8]: 12.7 µM
- cytocompatibility / cytotoxic effects [5]: worst cytocompatibility of all polymers tested

Molecule: TBP-functionalized polymer therapeutics (TPLSYLKGLVTVG)
- colocalization with cathepsin K and osteoclast activity [6]: colocalize to areas with cathepsin K and osteoclast activity
- localization to resorption pits ([7]; resorbed bone wafers, fluorescently labeled): localize to resorption pits
- affinity for untreated bone ([7]; untreated bone wafers): No affinity

Molecule: scrambled control peptide, VPVGTLSYLKLTG (SEQ ID NO: 2) (VPVGTLSYLKLTG-OH; also: methacrylamide introduced on amine end for polymer incorporation) [SCP, reference compound]
- affinity for TRAP measured with SPR [1]: no affinity
- KD for TRAP ([1]; binding-curve fit): did not enable fitting of a binding curve or calculations of affinity
- binding to bone resorption pits [2]: no binding

Molecule: 20% peptide-functionalized polymer (TPLSYLKGLVTVG)
- Kd [1, 8]: 7.5 µM

From US10195284B2, “Compositions and methods for controlled localized delivery of bone forming therapeutic agents” (University of Rochester, priority 2013, dated 2019)
